Laboratory results published in ChEMBL document CHEMBL2010689 (J Med Chem, 2012).

Experiments:
[1] = Metabolic stability in mouse liver S9 fraction assessed as compound remaining after 2 hrs; type: ADME, subcellular; details: read-out: Stability
[2] = Metabolic stability in rat liver S9 fraction assessed as compound remaining after 2 hrs; type: ADME, subcellular; details: read-out: Stability
[3] = Metabolic stability in dog liver S9 fraction assessed as compound remaining after 2 hrs; type: ADME, subcellular, Canis lupus familiaris; details: read-out: Stability
[4] = Oral bioavailability in Sprague-Dawley rat at 5 mg/kg; type: ADME, organism-based; details: in vivo
[5] = Metabolic stability in human liver S9 fraction assessed as compound remaining after 2 hrs; type: ADME, subcellular; details: read-out: Stability
[6] = Metabolic stability in monkey liver S9 fraction assessed as compound remaining after 2 hrs; type: ADME, subcellular, Macaca mulatta; details: rhesus monkey, read-out: Stability
[7] = molecular target: Vascular endothelial growth factor receptor 2 (Homo sapiens, UniProt P35968)
Description: Inhibition of human recombinant VEGF-R2 expressed in baculovirus expression system using GST-PLCgamma as substrate after 1 hr by time-resolved fluorescence analysis

Angiopoietin-1 receptor = Angiopoietin-1 receptor (Homo sapiens, UniProt Q02763)
Sequence of Angiopoietin-1 receptor (Q02763 whole entry): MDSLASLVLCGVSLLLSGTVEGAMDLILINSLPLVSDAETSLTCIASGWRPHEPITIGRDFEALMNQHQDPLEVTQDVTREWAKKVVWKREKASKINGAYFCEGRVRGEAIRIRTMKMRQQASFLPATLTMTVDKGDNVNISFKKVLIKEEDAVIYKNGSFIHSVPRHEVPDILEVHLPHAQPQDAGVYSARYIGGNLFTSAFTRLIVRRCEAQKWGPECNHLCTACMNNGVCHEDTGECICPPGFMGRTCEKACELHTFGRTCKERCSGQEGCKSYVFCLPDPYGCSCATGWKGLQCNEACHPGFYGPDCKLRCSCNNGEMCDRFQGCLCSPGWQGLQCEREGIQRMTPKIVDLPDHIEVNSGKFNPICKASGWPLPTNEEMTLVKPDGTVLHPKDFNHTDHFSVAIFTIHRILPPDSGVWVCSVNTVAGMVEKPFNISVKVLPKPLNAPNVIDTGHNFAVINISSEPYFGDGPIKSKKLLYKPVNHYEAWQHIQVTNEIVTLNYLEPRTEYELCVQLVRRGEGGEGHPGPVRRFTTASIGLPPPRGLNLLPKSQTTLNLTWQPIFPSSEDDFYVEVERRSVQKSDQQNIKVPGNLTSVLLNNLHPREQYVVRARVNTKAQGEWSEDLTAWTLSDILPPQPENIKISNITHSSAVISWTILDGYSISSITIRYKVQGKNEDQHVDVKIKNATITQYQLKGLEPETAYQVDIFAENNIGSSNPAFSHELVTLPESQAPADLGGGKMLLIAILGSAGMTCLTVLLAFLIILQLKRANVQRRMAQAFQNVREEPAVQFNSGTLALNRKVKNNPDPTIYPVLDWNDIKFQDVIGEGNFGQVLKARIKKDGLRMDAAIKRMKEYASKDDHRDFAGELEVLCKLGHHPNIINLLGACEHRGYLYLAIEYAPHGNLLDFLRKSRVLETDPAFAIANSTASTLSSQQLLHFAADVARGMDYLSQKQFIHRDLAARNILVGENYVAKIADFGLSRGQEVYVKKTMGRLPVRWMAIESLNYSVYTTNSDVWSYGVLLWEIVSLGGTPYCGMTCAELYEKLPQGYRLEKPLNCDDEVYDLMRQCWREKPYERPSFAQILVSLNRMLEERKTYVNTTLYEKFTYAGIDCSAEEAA
Description: Inhibition of human recombinant Tie2 expressed in baculovirus expression system using GST-PLCgamma as substrate after 1 hr by time-resolved fluorescence analysis

Sequence of Vascular endothelial growth factor receptor 2 (P35968 whole entry): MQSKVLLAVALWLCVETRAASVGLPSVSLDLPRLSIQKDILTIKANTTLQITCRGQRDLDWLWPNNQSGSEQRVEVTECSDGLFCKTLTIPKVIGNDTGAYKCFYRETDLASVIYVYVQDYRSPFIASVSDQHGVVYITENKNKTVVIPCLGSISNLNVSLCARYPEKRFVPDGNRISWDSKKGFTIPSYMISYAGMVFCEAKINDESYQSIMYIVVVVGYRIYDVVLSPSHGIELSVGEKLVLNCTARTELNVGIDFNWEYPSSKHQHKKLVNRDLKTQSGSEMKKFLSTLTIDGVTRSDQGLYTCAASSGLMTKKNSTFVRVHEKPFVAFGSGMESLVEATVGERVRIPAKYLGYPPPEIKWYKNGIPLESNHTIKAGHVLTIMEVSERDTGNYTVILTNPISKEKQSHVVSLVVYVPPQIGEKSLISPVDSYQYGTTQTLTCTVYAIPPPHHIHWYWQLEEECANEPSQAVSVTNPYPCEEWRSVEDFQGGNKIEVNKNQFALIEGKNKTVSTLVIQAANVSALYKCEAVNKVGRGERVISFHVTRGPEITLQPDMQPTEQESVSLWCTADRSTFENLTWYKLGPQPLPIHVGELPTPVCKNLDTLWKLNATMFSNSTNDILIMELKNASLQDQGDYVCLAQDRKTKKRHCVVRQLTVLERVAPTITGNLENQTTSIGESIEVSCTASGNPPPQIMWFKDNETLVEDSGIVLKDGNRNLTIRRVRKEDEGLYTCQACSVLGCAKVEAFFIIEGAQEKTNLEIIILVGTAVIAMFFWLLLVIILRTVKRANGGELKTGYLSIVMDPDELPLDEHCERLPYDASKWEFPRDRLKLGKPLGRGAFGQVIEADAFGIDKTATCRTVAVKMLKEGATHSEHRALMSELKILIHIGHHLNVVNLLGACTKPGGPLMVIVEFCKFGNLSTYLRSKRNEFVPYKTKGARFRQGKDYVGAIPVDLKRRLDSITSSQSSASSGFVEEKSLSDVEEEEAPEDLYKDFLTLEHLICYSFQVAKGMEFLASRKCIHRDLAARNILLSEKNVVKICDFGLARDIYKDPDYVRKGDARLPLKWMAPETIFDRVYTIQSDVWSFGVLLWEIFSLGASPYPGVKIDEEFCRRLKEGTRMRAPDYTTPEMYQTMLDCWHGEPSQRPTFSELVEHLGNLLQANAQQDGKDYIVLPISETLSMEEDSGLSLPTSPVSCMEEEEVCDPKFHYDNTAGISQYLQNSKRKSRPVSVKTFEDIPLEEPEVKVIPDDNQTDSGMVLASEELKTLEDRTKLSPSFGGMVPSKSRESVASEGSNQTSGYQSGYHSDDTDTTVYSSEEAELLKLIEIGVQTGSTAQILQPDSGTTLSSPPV

In the case of `CCCn1c2ccc(Nc3ncccn3)cc2c2c3c(c4c(c21)CCc1nn(C)cc1-4)C(=O)NC3`, the remaining at 2 h [1] is reported as 65%, the remaining at 2 h [2] is reported as 65% and the remaining at 2 h [3] is reported as 65%. It also gave a bioavailability [4] of 22%, a remaining at 2 h [5] of 54% and a remaining at 2 h [6] of 44%.
`Cc1cc(C)nc(Nc2ccc3c(c2)c2c4c(c5c(c2n3CC(C)C)CCc2nn(C)cc2-5)C(=O)NC4)n1` gave an IC50 [7] greater than 3 µM and an IC50 (Angiopoietin-1 receptor) greater than 3 µM.
Work on `COc1ccnc(Nc2ccc3c(c2)c2c4c(c5c(c2n3CC(C)C)CCc2nn(C)cc2-5)C(=O)NC4)n1` yielded an IC50 (Angiopoietin-1 receptor) greater than 1 µM.
Molecule `CC(C)Cn1c2ccc(Nc3nccc(C(F)(F)F)n3)cc2c2c3c(c4c(c21)CCc1nn(C)cc1-4)C(=O)NC3` has an IC50 (Angiopoietin-1 receptor) greater than 3 µM.
In the case of `CC(C)n1c2ccc(Nc3ccncc3)cc2c2c3c(c4c(c21)CCc1nn(C)cc1-4)C(=O)NC3`, the IC50 (Angiopoietin-1 receptor) is reported as greater than 3 µM.
With `CC(C)OCc1ccc2c(c1)c1c3c(c4c(c1n2CCCO)Cc1ccccc1-4)C(=O)NC3` [CEP-5214] the IC50 (Angiopoietin-1 receptor) was greater than 10 µM.
